Where two headings read alike, the source gives them in different places.
Assays:
[1] = test system: HIV-1 (HTLVIIIB or HTLVIIIMN strains) in H9 cells; experiment: HIV p24 antigen capture assay, acute infection of H9 cells; format: cell-based; settings: Human immunodeficiency virus 1, H9, Expt. 1
Excerpt: After infection, unabsorbed virions are removed by washing.

[2] = test system: HIV-1 reverse transcriptase (RT) activity in chronically infected CEM cells; settings: chronically infected human T lymphocytes such as CEM; general statement without data; cited from earlier work
[3] = test system: HIV-1 (HTLVIIIB) in H9 cells; experiment: Long term infection assay, p24 expression in H9 cells (antigen capture); format: cell-based; settings: for inhibition at 0.05 µM: read-out: % inhibition of p24 compared with control

Row | SMILES | inhibition at 0.005 µM ([1]; AZT 0.0016 μg/ml (0.005 μM)) | inhibition at 0.02 µM ([1]; AZT 0.008 μg/ml (0.02 μM)) | inhibition at 0.1 µM ([1]; AZT 0.04 μg/ml (0.1 μM)) | inhibition at 0.6 µM ([1]; AZT 0.2 μg/ml (0.6 μM)) | inhibition of HIV replication in chronically infected cells (in words) [2] | inhibition at 0.05 µM ([3]; Human immunodeficiency virus 1, H9, 72 h, day 3, 25mer 0.60 μM, ddC 0.05 μM) | inhibition at 0.05 µM ([3]; Human immunodeficiency virus 1, H9, 168 h, day 7, 25mer 0.60 μM, ddC 0.05 μM) | inhibition at 0.05 µM ([3]; Human immunodeficiency virus 1, H9, 240 h, day 10, 25mer 0.60 μM, ddC 0.05 μM) | inhibition at 0.05 µM ([3]; Human immunodeficiency virus 1, H9, 336 h, day 14, 25mer 0.60 μM, ddC 0.05 μM) | inhibition at 0.05 µM ([3]; Human immunodeficiency virus 1, H9, 408 h, day 17, 25mer 0.60 μM, ddC 0.05 μM) | p24 expression ([3]; day 3, 25mer 0.60 μM, ddC 0.05 μM, control 489) | p24 expression (pg/ml) ([3]; day 7, 25mer 0.60 μM, ddC 0.05 μM, control 188,800) | p24 expression (pg/ml) ([3]; day 10, 25mer 0.60 μM, ddC 0.05 μM, control 210,400) | p24 expression (pg/ml) ([3]; day 14, 25mer 0.60 μM, ddC 0.05 μM, control 130,400) | p24 expression (pg/ml) ([3]; day 17, 25mer 0.60 μM, ddC 0.05 μM, control 95,600) | long term inhibition of p24 expression (in words) ([3]; long term culture, up to day 17)
1 | Cc1cn([C@H]2C[C@H](N=[N+]=[N-])[C@@H](CO)O2)c(=O)[nH]c1=O [AZT, 3'-azido-3'-deoxythymidine] | 6% | 44% | 73% | 90% | do not inhibit HIV replication | – | – | – | – | – | – | – | – | – | – | –
2 | Nc1ccn([C@H]2CC[C@@H](CO)O2)c(=O)n1 [ddC, dideoxycytosine] | – | – | – | – | do not inhibit HIV replication | 75% | 94% | 91% | 56% | 44% | 124 pg/mL | 10,800 pg/ml | 17,300 pg/ml | 60,000 pg/ml | 54,000 pg/ml | ineffectiveness of ddC

From patent US5684147A, “Therapeutic anti-HIV anti-viral oligonucleotides and pharmaceutical formulations thereof” (Hybridon, Inc., priority 1994, dated 1997)
